The values that follow come from publication PMC3568987 (ACS medicinal chemistry letters, 2012).

One data set deals with human hepatocytes. The data set can be described thus: Hepatocyte intrinsic clearance. It counts as in vitro ADME.
The test system of a further data set is rat hepatocytes. The data set can be described thus: Hepatocyte intrinsic clearance. The format is in vitro ADME.

As for `CC#Cc1cncc(-c2cc(Cl)c([C@]3(C)CC(=O)N(C)C(=N)N3)s2)c1` [Compound 16], the intrinsic clearance in the data set with human hepatocytes turned out to be 2.7 μL.min^−1 ·10^6 cells; in the data set on rat hepatocytes, 4.9 μL.min^−1 ·10^6 cells.
